Results on 1 compound are retold here after publication PMC10086185, “Synthesis, radiolabeling, and evaluation of a (4-quinolinoyl)glycyl-2-cyanopyrrolidine analogue for fibroblast activation protein (FAP) PET imaging” (Frontiers in Bioengineering and Biotechnology, 2023).

Data set [1] can be described thus: Lipid/water partition coefficient in octanol/PBS (log D 7.4). The data set is classed as physicochemical. Conditions: pH 7.4. As to the method: The lipid/water partition coefficient of [^18F]3 was tested in octanol/PBS mixtures, following the published literature reports ([Li et al., 2019]) and presented as log D 7.4 values. Briefly, a small volume of [^18F]3 was added into an octanol/water mixture, and then, a series of diluted octanol/PBS mixtures was obtained, as described in the literature. The CPM in octanol and the PBS layer was obtained in a Wizard 2470 gamma counter (PerkinElmer) and was used to calculate the lipid/PBS partition coefficient. Several continuous and stable partition coefficient values were selected to calculate the log D 7.4 values.

The nature of data set [2]: In vitro stability in PBS saline, 20% EtOH solution and rat serum (radio-HPLC). Format: physicochemical. Conditions: 4 h at 37°C. As to the method:
The in vitro stability of [^18F]3 was performed in PBS saline, 20% EtOH solution, and rat serum. In general, a solution of [^18F]3 (50 µL, approximately 20 KBq) was added to the PBS saline (2 mL), 20% EtOH solution (2 mL), and rat serum (2 mL), and these solutions were suspended in a water bath under 37°C for […]. Samples from PBS saline and 20% EtOH solution were loaded into the analytical radio-HPLC for the detection of RCP at designated time points (0, 1, 2, and 4 h), with the same condition described previously. The samples from the rat serum were added the same volume of acetonitrile to deposit the plasma protein, and the supernatant obtained by centrifugation (×12,000 r/min, 5 min) was analyzed at corresponding time points.

For orientation: logD means lipophilicity at a set pH, counting ionised and neutral species. In the case of `N#C[C@@H]1CC(F)(F)CN1C(=O)CNC(=O)c1ccnc2ccc([18F])cc12` [[^18F]3], in data set [1], the logD was 1.11. Moreover, the “intact [^18F]3” value in data set [2] is on record as “over 90%”.
